Where “and” joins values, the source holds several entries; their conditions need not be identical. Equal entries are not always repeated. ± gives the uncertainty stated by the source.
Assay: xn = mol fraction of the nth substance listed

CCCCCCC + CCCO
Conditions | viscosity
298.15 K, 101.33 kPa, x2 = 0.7478 | 0.999 ± 0.0078 mPa·s
298.15 K, 101.33 kPa, x2 = 0.7849 | 1.154 ± 0.015 mPa·s
298.15 K, 101.33 kPa, x2 = 0.8202 | 1.187 ± 0.0092 mPa·s
298.15 K, 101.33 kPa, x2 = 0.879 | 1.447 ± 0.019 mPa·s
298.15 K, 101.33 kPa, x2 = 0.9458 | 1.659 ± 0.013 mPa·s
298.15 K, 101.33 kPa, x2 = 0.967 | 1.811 ± 0.023 mPa·s
303.15 K, 101 kPa, x1 = 0.0164 | 1.609 ± 0.01 mPa·s
303.15 K, 101 kPa, x1 = 0.102 | 1.319 ± 0.015 mPa·s
303.15 K, 101 kPa, x1 = 0.2018 | 1.047 ± 0.012 mPa·s
303.15 K, 101 kPa, x1 = 0.299 | 0.8669 ± 0.01 mPa·s
303.15 K, 101 kPa, x1 = 0.4005 | 0.7025 ± 0.0084 mPa·s
303.15 K, 101 kPa, x1 = 0.5017 | 0.5949 ± 0.0072 mPa·s
303.15 K, 101 kPa, x1 = 0.6033 | 0.5056 ± 0.0062 mPa·s
303.15 K, 101 kPa, x1 = 0.7025 | 0.4543 ± 0.0057 mPa·s
303.15 K, 101 kPa, x1 = 0.801 | 0.4254 ± 0.0054 mPa·s
303.15 K, 101 kPa, x1 = 0.8918 | 0.3943 ± 0.0051 mPa·s
303.15 K, 101 kPa, x2 = 0.0637 | 0.364 ± 0.003 mPa·s and 0.344 ± 0.003 mPa·s
303.15 K, 101 kPa, x2 = 0.1192 | 0.374 ± 0.003 mPa·s
303.15 K, 101 kPa, x2 = 0.2374 | 0.415 ± 0.004 mPa·s
303.15 K, 101 kPa, x2 = 0.3198 | 0.444 ± 0.004 mPa·s
303.15 K, 101 kPa, x2 = 0.4121 | 0.496 ± 0.004 mPa·s
303.15 K, 101 kPa, x2 = 0.5026 | 0.569 ± 0.004 mPa·s
303.15 K, 101 kPa, x2 = 0.6029 | 0.674 ± 0.005 mPa·s
303.15 K, 101 kPa, x2 = 0.6539 | 0.742 ± 0.005 mPa·s
303.15 K, 101 kPa, x2 = 0.6876 | 0.785 ± 0.006 mPa·s
303.15 K, 101 kPa, x2 = 0.7445 | 0.889 ± 0.006 mPa·s
303.15 K, 101 kPa, x2 = 0.7867 | 0.975 ± 0.007 mPa·s
303.15 K, 101 kPa, x2 = 0.8298 | 1.096 ± 0.007 mPa·s
303.15 K, 101 kPa, x2 = 0.884 | 1.23 ± 0.008 mPa·s
303.15 K, 101 kPa, x2 = 0.9695 | 1.544 ± 0.01 mPa·s
308.15 K, 101 kPa, x1 = 0.102 | 1.189 ± 0.014 mPa·s
308.15 K, 101 kPa, x1 = 0.2018 | 0.9659 ± 0.011 mPa·s
308.15 K, 101 kPa, x1 = 0.299 | 0.7776 ± 0.0092 mPa·s
308.15 K, 101 kPa, x1 = 0.4005 | 0.6444 ± 0.0077 mPa·s
308.15 K, 101 kPa, x1 = 0.5017 | 0.5454 ± 0.0066 mPa·s
308.15 K, 101 kPa, x1 = 0.6033 | 0.4781 ± 0.0059 mPa·s
308.15 K, 101 kPa, x1 = 0.7025 | 0.4308 ± 0.0054 mPa·s
308.15 K, 101 kPa, x1 = 0.801 | 0.3988 ± 0.0051 mPa·s
308.15 K, 101 kPa, x1 = 0.8918 | 0.3783 ± 0.0049 mPa·s
308.15 K, 101 kPa, x2 = 0.1596 | 0.36 ± 0.003 mPa·s
308.15 K, 101 kPa, x2 = 0.2647 | 0.399 ± 0.003 mPa·s
308.15 K, 101 kPa, x2 = 0.3436 | 0.435 ± 0.004 mPa·s
308.15 K, 101 kPa, x2 = 0.4385 | 0.489 ± 0.004 mPa·s
308.15 K, 101 kPa, x2 = 0.5026 | 0.532 ± 0.004 mPa·s
308.15 K, 101 kPa, x2 = 0.5659 | 0.584 ± 0.004 mPa·s
308.15 K, 101 kPa, x2 = 0.6029 | 0.619 ± 0.005 mPa·s
308.15 K, 101 kPa, x2 = 0.6877 | 0.728 ± 0.005 mPa·s
308.15 K, 101 kPa, x2 = 0.7447 | 0.817 ± 0.006 mPa·s
308.15 K, 101 kPa, x2 = 0.7867 | 0.909 ± 0.006 mPa·s
308.15 K, 101 kPa, x2 = 0.884 | 1.158 ± 0.008 mPa·s
308.15 K, 101 kPa, x2 = 0.9695 | 1.444 ± 0.009 mPa·s
308.15 K, 101.33 kPa, x1 = 0.0127 | 1.506 ± 0.012 mPa·s
308.15 K, 101.33 kPa, x2 = 0.0468 | 0.3551 ± 0.0042 mPa·s
308.15 K, 101.33 kPa, x2 = 0.0989 | 0.36 ± 0.0042 mPa·s
308.15 K, 101.33 kPa, x2 = 0.2079 | 0.3821 ± 0.0043 mPa·s
308.15 K, 101.33 kPa, x2 = 0.2621 | 0.4018 ± 0.0044 mPa·s
308.15 K, 101.33 kPa, x2 = 0.362 | 0.4432 ± 0.0046 mPa·s
308.15 K, 101.33 kPa, x2 = 0.4569 | 0.492 ± 0.0048 mPa·s
308.15 K, 101.33 kPa, x2 = 0.5667 | 0.5902 ± 0.0054 mPa·s
308.15 K, 101.33 kPa, x2 = 0.6636 | 0.7 ± 0.006 mPa·s
308.15 K, 101.33 kPa, x2 = 0.7478 | 0.8319 ± 0.0069 mPa·s
308.15 K, 101.33 kPa, x2 = 0.8202 | 0.98 ± 0.0077 mPa·s
308.15 K, 101.33 kPa, x2 = 0.9458 | 1.347 ± 0.011 mPa·s
